Test results: ChEMBL document CHEMBL3885861, “Open TG-GATES”

Species on record: Rattus norvegicus
Experiment: Open TG-GATES - Regimen: Single
Format: toxicity, organism-based, Sprague-Dawley
Parameters: regimen Single, gender Male, age 6 weeks
Conditions: in vivo, po, 10 mg/kg, route gavage, dose level Middle; for APTT / Bas / Eos / Fbg / Hb / Ht / Lym / MCH / MCHC / MCV / Mono / Neu / PT / Plat / RBC / Ret / WBC: tissue Blood; for KIDNEY_L / KIDNEY_R / KIDNEY_TOTAL: tissue Kidney; for LIVER: tissue Liver; for A/G / ALP / ALT / AST / BUN / CRE / Ca / Cl / DBIL / GLC / IP / K / LDH / Na / PL / RALB / TBIL / TC / TG / TP / gamma-GTP: tissue Plasma

SMILES: Nc1c2c(nc3ccccc13)CCCC2 [TACRINE]
- TERMINAL_BW (3 h): 204.5 g
- APTT (3 h): 22.1 s
- Bas (3 h): 0%
- Eos (3 h): 0.8%
- Fbg (3 h): 297.8 mg/dL
- Hb (3 h): 13.3 g/dL
- Ht (3 h): 38.8%
- Lym (3 h): 70%
- MCH (3 h): 21.2 pg
- MCHC (3 h): 34.4%
- MCV (3 h): 61.5 fL
- Mono (3 h): 2.2%
- Neu (3 h): 26.8%
- PT (3 h): 16.5 s
- Plat (3 h): 123.9 x10_4/uL
- RBC (3 h): 630.4 x10_4/ul
- Ret (3 h): 8.5%
- WBC (3 h): 68 x10_2/uL
- KIDNEY_L (3 h): 0.9 g
- KIDNEY_R (3 h): 0.9 g
- KIDNEY_TOTAL (3 h): 1.8 g
- LIVER (3 h): 9.4 g
- A/G (3 h): 1.3
- ALP (3 h): 1472.8 IU/L
- ALT (3 h): 45 IU/L
- AST (3 h): 90.4 IU/L
- BUN (3 h): 11.8 mg/dL
- CRE (3 h): 0.2 mg/dL
- Ca (3 h): 10.6 mg/dL
- Cl (3 h): 106.4 meq/L
- DBIL (3 h): 0.006 mg/dL
- GLC (3 h): 213.4 mg/dL
- IP (3 h): 8.7 mg/dL
- K (3 h): 3.7 meq/L
- LDH (3 h): 205.8 IU/L
- Na (3 h): 141.8 meq/L
- PL (3 h): 140.4 mg/dL
- RALB (3 h): 3.2 g/dL
- TBIL (3 h): 0.03 mg/dL
- TC (3 h): 74.6 mg/dL
- TG (3 h): 66.6 mg/dL
- TP (3 h): 5.8 g/dL
- gamma-GTP (3 h): 1 IU/L
- TERMINAL_BW (6 h): 199.6 g
- APTT (6 h): 19.8 s
- Bas (6 h): 0%
- Eos (6 h): 0.6%
- Fbg (6 h): 317.2 mg/dL
- Hb (6 h): 13.6 g/dL
- Ht (6 h): 39.5%
- Lym (6 h): 75.4%
- MCH (6 h): 21 pg
- MCHC (6 h): 34.4%
- MCV (6 h): 60.8 fL
- Mono (6 h): 2%
- Neu (6 h): 21.2%
- PT (6 h): 15.6 s
- Plat (6 h): 119.2 x10_4/uL
- RBC (6 h): 649.6 x10_4/ul
- Ret (6 h): 7.8%
- WBC (6 h): 74.9 x10_2/uL
- KIDNEY_L (6 h): 0.9 g
- KIDNEY_R (6 h): 0.9 g
- KIDNEY_TOTAL (6 h): 1.8 g
- LIVER (6 h): 8.5 g
- A/G (6 h): 1.3
- ALP (6 h): 1669.4 IU/L
- ALT (6 h): 41.8 IU/L
- AST (6 h): 82.4 IU/L
- BUN (6 h): 10.6 mg/dL
- CRE (6 h): 0.2 mg/dL
- Ca (6 h): 10.6 mg/dL
- Cl (6 h): 107.4 meq/L
- DBIL (6 h): 0.002 mg/dL
- GLC (6 h): 201.2 mg/dL
- IP (6 h): 8.8 mg/dL
- K (6 h): 4.4 meq/L
- LDH (6 h): 290.6 IU/L
- Na (6 h): 141.8 meq/L
- PL (6 h): 161 mg/dL
- RALB (6 h): 3.1 g/dL
- TBIL (6 h): 0.028 mg/dL
- TC (6 h): 82.2 mg/dL
- TG (6 h): 50.8 mg/dL
- TP (6 h): 5.5 g/dL
- gamma-GTP (6 h): 1 IU/L
- TERMINAL_BW (9 h): 197 g
- APTT (9 h): 21.5 s
- Bas (9 h): 0%
- Eos (9 h): 1%
- Fbg (9 h): 312.4 mg/dL
- Hb (9 h): 13.4 g/dL
- Ht (9 h): 38.9%
- Lym (9 h): 76.2%
- MCH (9 h): 21.4 pg
- MCHC (9 h): 34.5%
- MCV (9 h): 61.9 fL
- Mono (9 h): 2.2%
- Neu (9 h): 20%
- PT (9 h): 15.9 s
- Plat (9 h): 119.1 x10_4/uL
- RBC (9 h): 628.6 x10_4/ul
- Ret (9 h): 7.5%
- WBC (9 h): 74.6 x10_2/uL
- KIDNEY_L (9 h): 0.9 g
- KIDNEY_R (9 h): 0.9 g
- KIDNEY_TOTAL (9 h): 1.8 g
- LIVER (9 h): 8.3 g
- A/G (9 h): 1.3
- ALP (9 h): 1332.6 IU/L
- ALT (9 h): 42.6 IU/L
- AST (9 h): 86.8 IU/L
- BUN (9 h): 11.8 mg/dL
- CRE (9 h): 0.1 mg/dL
- Ca (9 h): 10.7 mg/dL
- Cl (9 h): 107.4 meq/L
- DBIL (9 h): 0.004 mg/dL
- GLC (9 h): 183.8 mg/dL
- IP (9 h): 9.7 mg/dL
- K (9 h): 4.2 meq/L
- LDH (9 h): 186.8 IU/L
- Na (9 h): 142.2 meq/L
- PL (9 h): 137.8 mg/dL
- RALB (9 h): 3.1 g/dL
- TBIL (9 h): 0.026 mg/dL
- TC (9 h): 77 mg/dL
- TG (9 h): 43.6 mg/dL
- TP (9 h): 5.5 g/dL
- gamma-GTP (9 h): 1 IU/L
- TERMINAL_BW (24 h): 217.1 g
- APTT (24 h): 21.1 s
- Bas (24 h): 0%
- Eos (24 h): 1%
- Fbg (24 h): 305 mg/dL
- Hb (24 h): 13.5 g/dL
- Ht (24 h): 39.3%
- Lym (24 h): 79%
- MCH (24 h): 21.2 pg
- MCHC (24 h): 34.4%
- MCV (24 h): 61.6 fL
- Mono (24 h): 3%
- Neu (24 h): 15.8%
- PT (24 h): 15.9 s
- Plat (24 h): 116.9 x10_4/uL
- RBC (24 h): 638 x10_4/ul
- Ret (24 h): 7.4%
- WBC (24 h): 98.6 x10_2/uL
- KIDNEY_L (24 h): 1 g
- KIDNEY_R (24 h): 1 g
- KIDNEY_TOTAL (24 h): 2 g
- LIVER (24 h): 9.7 g
- A/G (24 h): 1.3
- ALP (24 h): 1669.4 IU/L
- ALT (24 h): 40.4 IU/L
- AST (24 h): 77.2 IU/L
- BUN (24 h): 17 mg/dL
- CRE (24 h): 0.2 mg/dL
- Ca (24 h): 11 mg/dL
- Cl (24 h): 106 meq/L
- DBIL (24 h): 0.004 mg/dL
- GLC (24 h): 183 mg/dL
- IP (24 h): 7.9 mg/dL
- K (24 h): 4.3 meq/L
- LDH (24 h): 229 IU/L
- Na (24 h): 141.4 meq/L
- PL (24 h): 161.6 mg/dL
- RALB (24 h): 3.1 g/dL
- TBIL (24 h): 0.022 mg/dL
- TC (24 h): 81 mg/dL
- TG (24 h): 97 mg/dL
- TP (24 h): 5.5 g/dL
- gamma-GTP (24 h): 1 IU/L
